{
  "source": "patent US20240209043A1",
  "about": "“NON-ANTIBODY BINDING PEPTIDES AND THEIR ANALOGS DUAL-TARGETING TO PD-1 AND PD-L1, AND USES THEREOF” (ORAL SUBSIDIARY SUN YAT-SEN UNIVERSITY HOSPITAL, priority 2021, published 2024)",
  "key": {"[1]": {"target": "T1, PD-1 on the surface of Jurkat T cells (Homo sapiens, UniProt Q15116)", "T1 construct": "when Jurkat cells were stimulated by PMA, they highly expressed PD-1; endogenous in cells; host or cells: Jurkat T cells stimulated with PMA and ionomycin", "T1 sequence (Q15116 25-288)": "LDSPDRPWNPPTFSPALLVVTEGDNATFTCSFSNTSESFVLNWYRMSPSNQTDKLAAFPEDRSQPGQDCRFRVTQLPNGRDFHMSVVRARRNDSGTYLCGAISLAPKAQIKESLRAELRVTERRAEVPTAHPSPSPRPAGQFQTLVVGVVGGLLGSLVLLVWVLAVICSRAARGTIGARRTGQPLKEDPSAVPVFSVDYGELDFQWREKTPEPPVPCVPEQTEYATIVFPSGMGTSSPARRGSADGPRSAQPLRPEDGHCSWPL", "assay": "Immunofluorescence and flow cytometry analysis of specific binding of FITC-stained peptides to Jurkat T cells", "type": "cell-based", "details": "flow cytometry; 10 μM or 40 μM FITC peptide", "method": "(§1) Experiments were divided into an experimental group and a control group. In the experimental group, Jurkat T cells were stimulated for 24 hours with 50 ng/ml of Phorbol 12-myristate 13-acetate (PMA) and 1 ug/ml of Ionomycin Calcium Salt (Ionomycin) to express PD-1, while in the control group, Jurkat T cells were not stimulated and thus hardly expressed any PD-1. For immunofluorescence analysis, Jurkat T cells (1×10^6) were obtained and blocked with 2% BSA for 1 hour at room temperature to decrease specific binding. After blocking, the cells were collected and incubated with 10 μM of peptides stained with FITC (green fluorescence) for 1 hour at 37° C. PBS was used for washing the cells three times and 4% paraformaldehyde was used for immobilization. […] PBS was used for washing three times again and anti-fade mounting medium was used for preserving fluorescence. Further, fluorescence confocal microscope images were analyzed by using Image J software to evaluate the ability of polypeptides to compete the binding sites of PD-1. […] Subsequently, the cells were incubated with 10 μM or 40 μM of peptides stained with FITC (green fluorescence) for 1 hour at 4° C. PBS was used for washing three times, and finally 500 ul of PBS was used for resuspending the cells, which were then transferred to flow tubes and analyzed by flow cytometry (CytoFLEX, BECK MANCOULTER, America)."}, "PD-1 [2]": {"target": "T2, PD-1 (Homo sapiens, UniProt Q15116)", "assay": "SPR affinity assay on recombinant Human PD-1 protein (Biocore T100, CM5 chip)", "type": "binding", "set-up": "purchased Acro Biosystems PD1-H5221", "method": "The affinity of the peptides was tested with Biocore T100 through surface plasmon resonance (SPR) technique. […] Finally, the affinities (Kd-value) of the peptides were calculated by fitting curves in the sensor diagram in Biacore software.\nThe binding affinities (Kd-value) of nABP386, nABP486, and nABP786 to PD-1 were detected by Surface plasma resonance (SPR), respectively."}, "Jurkat T cells": {"system": "Jurkat T cells", "assay": "CCK-8 cytotoxicity assay on Jurkat T cells", "type": "cell-based, Human", "details": "CCK-8, 1-64 μM, 24 hours", "method": "(§2) Cytotoxicity assay was performed and measured with Cell Counting Kit-8 (CCK-8, Dujindo, Japan). Jurkat cells (each well with 4000 cells), PBMCs (each well with 4000 cells) and Cal27 cells (each well with 2000 cells) were added into a 96-well plate and cultured for 24 hours, respectively. nABP284, nABP386 and nABP486 in a concentration gradient of 1 μM, 2 μM, 3 μM, 4 μM, 8 μM, 16 μM, 32 μM and 64 μM were added into the medium and the cells were cultured for 24 hours in a cell incubator. After that, 10 μl of CCK-8 solution was added to each well and the cells were incubated for 2 hours. VictorX5 Multilabel plate reader (PerkinElmer, Singapore) was used for measuring absorbance of each well at 450 nm. Cell viability (%) was calculated by the following formula:\n(§3) Cell viability (%)=[(Sample A−Background A)/(Control A−Blank A)×100%. • Wherein Sample A denotes the absorbance of the experimental well (including cells, CCK-8 solution, medium and peptide diluent) • Background A denotes the absorbance of the background hole (including CCK-8 solution, medium, and peptide diluent without cells); • Control A denotes the absorbance of the control hole (including cells, CCK-8 solution and medium without peptide diluent); and • Blank A denotes the absorbance of the blank hole (including CCK-8 solution and medium without cells and peptide diluent)."}, "[3]": {"system": "PD-1/PD-L1 interaction in Jurkat T / Cal27 co-culture", "assay": "Co-culture of stimulated Jurkat T cells and stimulated Cal27 cells, IL-2 ELISA", "type": "cell-based, Human", "details": "10 μM peptide or 2 ug/ml antibody, 24 hours co-culture, compared with the control group", "method": "50 ng/ml of Phorbol 12-myristate 13-acetate (PMA) and 1 ug/ml of Ionomycin Calcium Salt (Ionomycin) were used for stimulating Jurkat T cells for 24 hours, and 500 U/ml of IFN-γ was used for stimulating CAL27 cells for 48 hours. The stimulated Jurkat T cells were incubated with 10 μM of nABP284, 10 μM of nABP386, 10 μM of nABP486, and 2 ug/ml of PD-1 functional monoclonal antibody (J116, eBioscience|ThermoFisher Science) for 1 hour in advance at 37° C., respectively, and the stimulated CAL27 cells were added to the 96-well plate at 1×10^4 cells per well. When CAL27 cells were immobilized, a supernate was removed. The Jurkat T cells at a ratio of 4 to 1 and 200 ul of medium were added to each well. After these cells were co-cultured for 24 hours, a supernate was collected and analyzed by ELISA kit (88-7025-86, Thermo Fisher Scientific) to measure the amount of IL-2 in the supernate."}, "PD-1 [4]": {"target": "T2, PD-1", "details": "in vitro, prior patent; cited from earlier work"}, "Cal27 cells": {"system": "Cal27 cells", "assay": "CCK-8 cytotoxicity assay on Cal27 cells", "type": "cell-based, Human", "details": "CCK-8, 1-64 μM, 24 hours", "method": "as §2, §3"}, "tumor": {"system": "tumor", "details": "prior patent; cited from earlier work"}, "[5]": {"target": "T3, PD-1 expressed on the surface of stimulated Jurkat T cells (Homo sapiens, UniProt Q15116)", "T3 construct": "when Jurkat cells were stimulated by PMA, they highly expressed PD-1; endogenous in cells; host or cells: Jurkat T cells stimulated with PMA and ionomycin", "T3 sequence (Q15116 25-288)": "as above", "assay": "Blocking capacity: competitive binding to PD-1 on stimulated Jurkat T cells (immunofluorescence, mean fluorescence intensity)", "type": "cell-based", "details": "1 hour incubation, equal concentration", "method": "as §1, with “America). […]” for “America).”"}, "[6]": {"target": "T4, recombinant Human PD-L1 protein binding to PD-1-expressing Jurkat T cells (Homo sapiens, UniProt Q15116)", "T4 construct": "when Jurkat cells were stimulated by PMA, they highly expressed PD-1; host or cells: Jurkat T cells stimulated with PMA and ionomycin", "T4 sequence (Q15116 25-288)": "as above", "assay": "Neutralization of recombinant Human PD-L1 protein binding to PD-1-expressing Jurkat T cells (flow cytometry)", "type": "cell-based", "details": "peptide 0.4-40 μM mixed with PD-L1 protein, stimulated Jurkat T cells", "method": "The Jurkat T cells were divided into two groups, an experimental group and a control group, wherein in the experimental group, 50 ng/ml of Phorbol 12-myristate 13-acetate (PAM) and 1 ug/ml of Ionomycin Calcium Salt (Ionomycin) were used to stimulate the cells, and in the control group, Jurkat T cells were unstimulated. The cells (5×10^5) were collected in each tube, and washed once with FACS buffer (PBS with 2% BSA). Then recombinant Human PD-L1 protein (PD1-H82F3, Acro Biosystems) was diluted to 4 ug/ml with FACS, and PD-1 binding peptides were diluted with FACS to a series of concentrations of 0.4 μM, 1.33 μM, 4 μM, 13.3 μM, and 40 μM. Subsequently, the two working solutions (PD-L1 protein diluent and peptide diluent) were mixed in an equal volume and 100 ul of mixed solutions at different concentrations were added to the centrifuge tubes together with the cells, incubated for 1 hour at 4° C. FACS buffer was used for washing the cells three times, and 0.12 ug/ml of APC Streptavidin (405207, Biolegend) was added to each tube and the incubation was performed for 1 hour at 4° C., and then the cells were washed three times with FACS buffer again, and 500 μl of PBS was added to resuspend the cells, which were further transferred to flow tubes and analyzed by flow cytometry.\nFurther, neutralization capacity of nABP284 and new peptides to recombinant Human PD-L1 protein were studied. […]"}},
  "note": "Where no end group is shown, it is not given here.",
  "data": [
    {"sequence": "SRLKEIANSPTQFWRMVARNTLGGAKQSLNIEHARL [nABP284]", "values": [
      {"measurement": "binding rate to PD-1-expressing Jurkat T cells", "setting": "[1]", "value": "may increase with its increasing concentration"},
      {"measurement": "binding affinity to PD-1, in words", "setting": "PD-1 [2]", "value": "can specifically bind to PD-1 with moderate affinity"},
      {"measurement": "direct cytotoxicity to Jurkat T cells", "setting": "Jurkat T cells", "value": "no directly cytotoxicity"},
      {"measurement": "secretion level of IL-2 in the co-culture system", "setting": "[3]", "value": "significantly increased"},
      {"measurement": "blocking of PD-L1 ligand binding to PD-1", "setting": "PD-1 [4]", "value": "can block the binding of PD-L1 ligand to PD-1"},
      {"measurement": "secretion of IL-2 and tumor cytotoxicity of T lymphocytes", "setting": "PD-1 [4]", "value": "enhance the secretion of interleukin 2 (IL-2) and tumor cytotoxicity of T lymphocytes"},
      {"measurement": "direct cytotoxicity to Cal27 cells", "setting": "Cal27 cells", "value": "no directly cytotoxicity"},
      {"measurement": "tumor growth in mice", "setting": "tumor", "value": "inhibit tumor growth in mice"},
      {"measurement": "blocking capacity on PD-1 (mean fluorescence intensity)", "setting": "[5]", "value": "have a blocking capacity on PD-1 expressed on the surface of stimulated Jurkat T cells"},
      {"measurement": "neutralization capacity to recombinant Human PD-L1 protein", "setting": "[6]", "value": "can be inhibited"}
    ]}
  ]
}
